Where two headings read alike, the source gives them in different places.
Key:
[1] = tested on: cholesterol biosynthesis in HEP-G2 cells; test: Cholesterol biosynthesis inhibition in HEP-G2 liver cell cultures (14C-acetate); format: cell-based; settings: Homo sapiens, 3 h with (14C)acetate
Experimental: (§1) Monolayers of HEP-G2 cells in liproprotein-free nutrient medium are preincubated with appropriate concentrations of the substances of the formula I to be tested for one hour. After addition of the […] biosynthesis precursor sodium (^14 C)acetate the incubation is continued for 3 hours. After this a portion of the cells is subjected to alkaline hydrolysis after addition of an internal standard of ^3 H-cholesterol. The lipids from the hydrolyzed cells are extracted with a chloroform/methanol mixture. This lipid mixture is, after addition of carrier cholesterol, fractionated by preparative thin-layer chromatography, the cholesterol band is stained and then isolated, and the amount of ^14 C-cholesterol formed from the ^14 C-precursor is determined by scintigraphy. Cellular protein was determined in an aliquot of the cells so that the amount of ^14 C-cholesterol formed from ^14 C-precursor per mg of cellular protein per unit time can be calculated. The control is used for comparison for the inhibitory effect of an added test product so that it is possible to state directly the inhibition of the cholesterol biosynthesis at a particular molar concentration of the test product in the medium. The integrity of the cell culture and the absence of cell damage owing to exposure to the product is assessed morphologically (light microscopy) and measured biochemically by determining the lactic dehydrogenase release into the incubation medium on aliquots of the cell culture.

[2] = tested on: HEP-G2 cells; test: Integrity of the cell culture / cell damage (light microscopy, lactic dehydrogenase release); format: cell-based
Experimental: as §1, with “The control is used for comparison for the inhibitory effect of an added test product so that it is possible to state directly the inhibition of the cholesterol biosynthesis at a particular molar concentration of the test product in the medium.” left out

[3] = Serum enzymes, bilirubin and creatinine in rats; format: in vivo, Rat, male, strain: HOE WISKf (SPF 71); settings: for Bilirubin, Final, mean / Creatinine, Final, mean / Serum enzymes SGOT, Final, mean / Serum enzymes SGPT, Final, mean / Serum enzymes aP, Final, mean / Bilirubin, Initial, mean / Creatinine, Initial, mean / Serum enzymes SGOT, Initial, mean / Serum enzymes SGPT, Initial, mean / Serum enzymes aP, Initial, mean: male rat; for Bilirubin, Final, mean / Creatinine, Final, mean / Serum enzymes SGOT, Final, mean / Serum enzymes SGPT, Final, mean / Serum enzymes aP, Final, mean: after treatment (8th day); for Bilirubin, Initial, mean / Creatinine, Initial, mean / Serum enzymes SGOT, Initial, mean / Serum enzymes SGPT, Initial, mean / Serum enzymes aP, Initial, mean: before treatment (1st day)
Experimental: (§2) Male rats with an initial weight above 180 g received the test product of the formula I in polyethylene glycol 400 by gavage once a day (in the morning) (0.5 ml/100 g of body weight); the relevant control group received only the same amount of solvent. The last (7th) administration took place 24 hours before blood sampling and sacrifice. There was free access to feed and water during the test. Feed was withdrawn 24 hours before the retroorbital blood sampling, which took place under light ether anesthesia before and after the treatment period (that is to say on the 1st and 8th day). Serum glutamic-oxalate transaminase (SGOT), serum glutamic-pyruvic transaminase (SGPT), alkaline phosphatase (aP), bilirubin and creatinine were determined in the serum of each individual animal. The total glycerol was measured from the pooled serum of all animals in a group as measure of the triglycerides (Eggstein, M. Kreutz, F. H.: Klin. Wschr. 44, 262 and 267 (1966); Wahlefeld, A. W., in: H. O. Bergmeier: Methoden der enzymatischen Analyse (Methods of enzymatic analysis), 2nd Edition, Volume II, Verlag Chemie 1974, Page 1878). Immediately after the blood sampling the animals were sacrificed by distortion of the spinal column. The livers were removed, and the relative liver weight was determined. In addition, the body weight gain and the feed consumption were investigated. The statistical analysis was carried out by Student's t test.

[4] = Body weight, relative liver weight and feed consumption in rats; format: in vivo, Rat, male, strain: HOE WISKf (SPF 71); settings: for % Change from control, Body weight after / % Change from control, rel. feed consumption after: male rat, after treatment
Experimental: as §2

[5] = tested on: serum lipoproteins; test: Lipoprotein fractionation by ultracentrifugation in rats (serum cholesterol, protein, triglycerides; hypolipemic effect); format: in vivo, Rat, male, strain: HOE WISKf (SPF 71); settings: for % Change compared with control, Protein LDL / % Change compared with control, Protein VLDL / % Change compared with control, Total cholesterol HDL / % Change compared with control, Total cholesterol LDL / % Change compared with control, Total cholesterol VLDL / % Change compared with control, Triglycerides VLDL / Cholesterol HDL/LDL Based on control / Cholesterol HDL/LDL: male rat, by gavage; for % Change compared with control, Protein LDL / % Change compared with control, Protein VLDL / % Change compared with control, Total cholesterol HDL / % Change compared with control, Total cholesterol LDL / % Change compared with control, Total cholesterol VLDL / % Change compared with control, Triglycerides VLDL: 7 administrations; for Cholesterol HDL/LDL Based on control: control 1.00; for Cholesterol HDL/LDL: control 3.75
Experimental: as §2, with “The total glycerol was measured from the pooled serum of all animals in a group as measure of the triglycerides (Eggstein, M. Kreutz, F. H.: Klin. Wschr. 44, 262 and 267 (1966); Wahlefeld, A. W., in: H. O. Bergmeier: Methoden der enzymatischen Analyse (Methods of enzymatic analysis), 2nd Edition, Volume II, Verlag Chemie 1974, Page 1878).” left out
To analyze the serum lipoproteins, after the treatment period the serum of all rats in a group was pooled.

[6] = HepG2, standard products, 1 h preincubation, read-out: IC50, inhibition of cholesterol biosynthesis

CC1CC(O)C=CC(O)C(O)CC(=O)O1 (stereo not drawn)
IC50 ([1]; HepG2, 1 h preincubation, read-out: inhibits biosynthesis by 50% at): 100 nM
cell culture damage [2]: not damaged
Bilirubin, Final, mean ([3]; 15 mg/kg/day): 2.0 µmol/L
Creatinine, Final, mean ([3]; 15 mg/kg/day): 64 µmol/L
Serum enzymes SGOT, Final, mean ([3]; 15 mg/kg/day): 56 U/L
Serum enzymes SGPT, Final, mean ([3]; 15 mg/kg/day): 25 U/L
Serum enzymes aP, Final, mean ([3]; 15 mg/kg/day): 247 U/L
Bilirubin, Initial, mean ([3]; 15 mg/kg/day): 2.8 µmol/L
Creatinine, Initial, mean ([3]; 15 mg/kg/day): 67 µmol/L
Serum enzymes SGOT, Initial, mean ([3]; 15 mg/kg/day): 41 U/L
Serum enzymes SGPT, Initial, mean ([3]; 15 mg/kg/day): 29 U/L
Serum enzymes aP, Initial, mean ([3]; 15 mg/kg/day): 359 U/L
tolerability parameters: SGOT, SGPT, aP, serum bilirubin and serum creatinine ([3]; rat): not pathologically changed
% Change from control, Body weight after ([4]; 15 mg/kg/day): -3%
% Change from control, rel. feed consumption after ([4]; 15 mg/kg/day): -1%
% Change compared with control, Protein LDL ([5]; 15 mg/kg/day): -20%
% Change compared with control, Protein VLDL ([5]; 15 mg/kg/day): -12%
% Change compared with control, Total cholesterol HDL ([5]; 15 mg/kg/day): -13%
% Change compared with control, Total cholesterol LDL ([5]; 15 mg/kg/day): -31%
% Change compared with control, Total cholesterol VLDL ([5]; 15 mg/kg/day): -40%
% Change compared with control, Triglycerides VLDL ([5]; 15 mg/kg/day): -22%
Cholesterol HDL/LDL Based on control ([5]; 15 mg/kg/day): 1.26
Cholesterol HDL/LDL ([5]; 15 mg/kg/day): 4.74
reduction in the triglycerides (mainly transported in the VLDL) ([5]; rat): distinct reduction
vasoprotective index HDL-cholesterol: LDL-cholesterol ([5]; rat): significant increase
reduction in the atherogenic serum lipoproteins LDL and VLDL (cholesterol content) ([5]; rat, at one seventh of the dose of clofibrate, compared with clofibrate): equally great reduction
reduction in the HDL fraction ([5]; rat, compared with clofibrate): only half as large
vasoprotective index HDL-cholesterol: LDL-cholesterol compared with clofibrate ([5]; rat, compared with clofibrate): distinctly higher than with clofibrate

C[C@H](CCCC(C)(C)O)[C@H]1CC[C@H]2[C@@H]3CC=C4C[C@@H](O)CC[C@]4(C)[C@H]3CC[C@]12C [25-hydroxycholesterol]
IC50 [1, 6]: 230 nM

CCOC(=O)C(C)(C)Oc1ccc(Cl)cc1 [Clofibrate, clofibrate]
relative liver weight ([4]; rat, in vivo): increased
% Change compared with control, Protein LDL ([5]; 100 mg/kg/day): +2%
% Change compared with control, Protein VLDL ([5]; 100 mg/kg/day): +5%
% Change compared with control, Total cholesterol HDL ([5]; 100 mg/kg/day): -26%
% Change compared with control, Total cholesterol LDL ([5]; 100 mg/kg/day): -31%
% Change compared with control, Total cholesterol VLDL ([5]; 100 mg/kg/day): -46%
% Change compared with control, Triglycerides VLDL ([5]; 100 mg/kg/day): +2%
Cholesterol HDL/LDL Based on control ([5]; 100 mg/kg/day): 1.08
Cholesterol HDL/LDL ([5]; 100 mg/kg/day): 4.03

CC[C@H](C)C(=O)O[C@H]1C[C@@H](C)C=C2C=C[C@H](C)[C@H](CC[C@@H]3C[C@@H](O)CC(=O)O3)[C@H]21 [Lovastatin, lovastatin]
IC50 [1, 6]: 23 nM
Bilirubin, Final, mean ([3]; 10 mg/kg/day): 2.7 µmol/L
Creatinine, Final, mean ([3]; 10 mg/kg/day): 65 µmol/L
Serum enzymes SGOT, Final, mean ([3]; 10 mg/kg/day): 59 U/L
Serum enzymes SGPT, Final, mean ([3]; 10 mg/kg/day): 25 U/L
Serum enzymes aP, Final, mean ([3]; 10 mg/kg/day): 302 U/L
Bilirubin, Initial, mean ([3]; 10 mg/kg/day): 3.8 µmol/L
Creatinine, Initial, mean ([3]; 10 mg/kg/day): 60 µmol/L
Serum enzymes SGOT, Initial, mean ([3]; 10 mg/kg/day): 42 U/L
Serum enzymes SGPT, Initial, mean ([3]; 10 mg/kg/day): 31 U/L
Serum enzymes aP, Initial, mean ([3]; 10 mg/kg/day): 409 U/L
Bilirubin, Final, mean ([3]; 50 mg/kg/day): 2.5 µmol/L
Creatinine, Final, mean ([3]; 50 mg/kg/day): 62 µmol/L
Serum enzymes SGOT, Final, mean ([3]; 50 mg/kg/day): 89 U/L
Serum enzymes SGPT, Final, mean ([3]; 50 mg/kg/day): 46 U/L
Serum enzymes aP, Final, mean ([3]; 50 mg/kg/day): 324 U/L
Bilirubin, Initial, mean ([3]; 50 mg/kg/day): 2.9 µmol/L
Creatinine, Initial, mean ([3]; 50 mg/kg/day): 60 µmol/L
Serum enzymes SGOT, Initial, mean ([3]; 50 mg/kg/day): 38 U/L
Serum enzymes SGPT, Initial, mean ([3]; 50 mg/kg/day): 31 U/L
Serum enzymes aP, Initial, mean ([3]; 50 mg/kg/day): 355 U/L
Bilirubin, Final, mean ([3]; 300 mg/kg/day): 2.9 µmol/L
Creatinine, Final, mean ([3]; 300 mg/kg/day): 61 µmol/L
Serum enzymes SGOT, Final, mean ([3]; 300 mg/kg/day): 107 U/L
Serum enzymes SGPT, Final, mean ([3]; 300 mg/kg/day): 44 U/L
Serum enzymes aP, Final, mean ([3]; 300 mg/kg/day): 369 U/L
Bilirubin, Initial, mean ([3]; 300 mg/kg/day): 2.7 µmol/L
Creatinine, Initial, mean ([3]; 300 mg/kg/day): 64 µmol/L
Serum enzymes SGOT, Initial, mean ([3]; 300 mg/kg/day): 59 U/L
Serum enzymes SGPT, Initial, mean ([3]; 300 mg/kg/day): 32 U/L
Serum enzymes aP, Initial, mean ([3]; 300 mg/kg/day): 386 U/L
transaminase SGOT change ([3]; rat): dose-dependent and distinctly pathological change
% Change from control, Body weight after ([4]; 10 mg/kg/day): +4%
% Change from control, rel. feed consumption after ([4]; 10 mg/kg/day): +8%
% Change from control, Body weight after ([4]; 50 mg/kg/day): 0%
% Change from control, rel. feed consumption after ([4]; 50 mg/kg/day): +4%
% Change from control, Body weight after ([4]; 300 mg/kg/day): +1%
% Change from control, rel. feed consumption after ([4]; 300 mg/kg/day): +1%
% Change compared with control, Protein LDL ([5]; 10 mg/kg/day): -16%
% Change compared with control, Protein VLDL ([5]; 10 mg/kg/day): -22%
% Change compared with control, Total cholesterol HDL ([5]; 10 mg/kg/day): -14%
% Change compared with control, Total cholesterol LDL ([5]; 10 mg/kg/day): -2%
% Change compared with control, Total cholesterol VLDL ([5]; 10 mg/kg/day): -32%
% Change compared with control, Triglycerides VLDL ([5]; 10 mg/kg/day): -15%
Cholesterol HDL/LDL Based on control ([5]; 10 mg/kg/day): 0.89
Cholesterol HDL/LDL ([5]; 10 mg/kg/day): 3.32
% Change compared with control, Protein LDL ([5]; 50 mg/kg/day): -19%
% Change compared with control, Protein VLDL ([5]; 50 mg/kg/day): -40%
% Change compared with control, Total cholesterol HDL ([5]; 50 mg/kg/day): -15%
% Change compared with control, Total cholesterol LDL ([5]; 50 mg/kg/day): -26%
% Change compared with control, Total cholesterol VLDL ([5]; 50 mg/kg/day): -52%
% Change compared with control, Triglycerides VLDL ([5]; 50 mg/kg/day): -38%
Cholesterol HDL/LDL Based on control ([5]; 50 mg/kg/day): 1.14
Cholesterol HDL/LDL ([5]; 50 mg/kg/day): 4.29
% Change compared with control, Protein LDL ([5]; 300 mg/kg/day): +5%
% Change compared with control, Protein VLDL ([5]; 300 mg/kg/day): -37%
% Change compared with control, Total cholesterol HDL ([5]; 300 mg/kg/day): -9%
% Change compared with control, Total cholesterol LDL ([5]; 300 mg/kg/day): +3%
% Change compared with control, Total cholesterol VLDL ([5]; 300 mg/kg/day): -49%
% Change compared with control, Triglycerides VLDL ([5]; 300 mg/kg/day): -34%
Cholesterol HDL/LDL Based on control ([5]; 300 mg/kg/day): 0.89
Cholesterol HDL/LDL ([5]; 300 mg/kg/day): 3.33
effect on LDL-cholesterol compared with the compound according to the invention ([5]; rat): distinctly inferior
effect on VLDL and HDL compared with the compound according to the invention ([5]; rat): about identical
